Data from patent publication US20230067378A1, “COMPOSITIONS AND METHODS FOR THE TREATMENT OF ESTROGEN-DEPENDENT DISORDERS” (ObsEva S.A., priority 2018, published 2023).
pKi: −log10 of the molar value.

Assays:
human GnRH receptor = target: T1, human GnRH receptor (Homo sapiens, UniProt P30968); assay: affinity for human GnRH receptor; format: binding; conditions: kind of constant not given; also for salts such as the choline salt
T1 sequence (P30968 1-328): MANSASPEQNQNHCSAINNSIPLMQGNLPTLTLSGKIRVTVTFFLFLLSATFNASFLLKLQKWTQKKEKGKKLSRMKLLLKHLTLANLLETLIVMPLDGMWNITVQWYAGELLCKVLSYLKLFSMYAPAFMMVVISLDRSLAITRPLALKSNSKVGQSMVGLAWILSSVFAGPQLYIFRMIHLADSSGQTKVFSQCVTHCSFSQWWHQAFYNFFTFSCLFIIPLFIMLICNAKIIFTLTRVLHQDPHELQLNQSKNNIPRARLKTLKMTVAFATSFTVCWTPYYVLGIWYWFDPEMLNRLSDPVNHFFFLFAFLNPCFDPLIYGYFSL

progesterone = assay: circulating progesterone concentration, same clinical trial; format: in vivo, human; conditions: both cohorts (Concurrent-ABT and Delayed-ABT), exception of a single outlier subject, FIG. 3B
Method: The experiments described in this example were conducted as part of a single-center, open-label, randomized, parallel-group clinical trial in 32 pre-menopausal women. Following screening assessments, and during the second half of the menstrual cycle, women received norethindrone (5 mg, three-times daily for 10 days) to synchronize menstrual cycles. […]
(§1) The main treatment outcomes and endpoints measured during these experiments included (i) a qualitative assessment of uterine blood loss, which was recorded on a daily basis throughout the study by characterizing each subject's bleeding pattern using one of the following four categories: “no bleeding,” “spotting” (light staining, dark blood, no sanitary protection needed or only panty liner), “bleeding” (1-4 completely soiled maxi sanitary towels or 1-8 soiled tampons or equivalent combination of the two), or “heavy bleeding” (>4 completely soiled maxi sanitary towels or >8 soiled tampons or equivalent combination of the two); (ii) a bi-weekly assessment of each subject's circulating E2 concentration; (iii) a bi-weekly assessment of each subject's circulating progesterone concentration (measured using a validated commercial chemiluminescence immunoassay method (Elecsys Progesterone III, Roche, Burgess Hill, UK)); (iv) the pharmacokinetic profile of compound (VI) and the add-back therapy; and (v) adverse events.

[1] = adverse events, same clinical trial; format: in vivo, human
Method: (§2) The experiments described in this example were conducted as part of a single-center, open-label, randomized, parallel-group clinical trial in 32 pre-menopausal women. Following screening assessments, and during the second half of the menstrual cycle, women received norethindrone (5 mg, three-times daily for 10 days) to synchronize menstrual cycles. After menstrual cycle synchronization, subjects were randomized with a 1:1 ratio to one of two treatment arms: (i) a cohort receiving once-daily administration of compound (VI) (200 mg per day, administered in the form of a choline salt) with concurrent onset of add-back therapy administration for 10 weeks (“Concurrent-ABT”), or (ii) a cohort receiving pre-treatment with compound (VI) (200 mg per day, administered in the form of a choline salt) for 4 weeks followed by combined daily administration of compound (VI) and add-back therapy (“Delayed-ABT”). The add-back therapy used in these experiments contained 1.0 mg of E2 and 0.5 mg of norethindrone acetate, and was administered to subjects once daily.
as §1

β17-estradiol (E2) = assay: circulating E2 concentration, same clinical trial; format: in vivo, human; conditions: for median E2 level: Delayed-ABT cohort, Compound (VI) alone
Method: as §2, §1

[2] = Days 1-14, treatment A (Concurrent-ABT), N=16
[3] = Days 1-14, treatment B (Delayed-ABT), N=16
[4] = Days 15-28, Overall (A+B), N=32
[5] = Days 15-28, treatment A (Concurrent-ABT), N=16
[6] = Days 15-28, treatment B (Delayed-ABT), N=16
[7] = Days 29-42, Overall (A+B), N=29
[8] = Days 29-42, treatment A (Concurrent-ABT), N=14
[9] = Days 29-42, treatment B (Delayed-ABT), N=15
[10] = Days 43-56, Overall (A+B), N=29
[11] = Days 43-56, treatment A (Concurrent-ABT), N=14
[12] = Days 43-56, treatment B (Delayed-ABT), N=15
[13] = Days 57-70, Overall (A+B), N=29
[14] = Days 57-70, treatment A (Concurrent-ABT), N=14
[15] = Days 57-70, treatment B (Delayed-ABT), N=15
[16] = events of all reported adverse events, both cohorts

## COc1cc(F)c(-n2c(=O)[nH]c3csc(C(=O)O)c3c2=O)cc1OCc1c(OC)ccc(F)c1F [Compound (VI), 3-[2-fluoro-5-(2,3-difluoro-6-methoxybenzyloxy)4-methoxyphenyl]-2,4-dioxo-1,2,3,4-tetrahydrothieno [3,4d]pyrimidine-5-carboxylic acid]
Human GnRH receptor
  pKi: 7.56
progesterone
  circulating progesterone: sustained reduction in circulating progesterone
[1]; Concurrent-ABT versus Delayed-ABT
  hot flushes, cohort of occurrence: exclusively occurred in the “Delayed-ABT” group
[1]; Days 1-14, Overall (A+B), N=32
  Hot Flush, subjects (%), Plasma Estradiol Level 20-50 pg/mL: (0.0%)
  Hot Flush, subjects (%), Plasma Estradiol Level <20 pg/mL: (6.3%)
  Hot Flush, subjects (%), Plasma Estradiol Level >50 pg/mL: (0.0%)
  Hot Flush, subjects (n), Plasma Estradiol Level 20-50 pg/mL: 0
  Hot Flush, subjects (n), Plasma Estradiol Level <20 pg/mL: 2
  Hot Flush, subjects (n), Plasma Estradiol Level >50 pg/mL: 0
[1]; [2]
  Hot Flush, subjects (%), Plasma Estradiol Level 20-50 pg/mL: (0.0%)
  Hot Flush, subjects (%), Plasma Estradiol Level <20 pg/mL: (0.0%)
  Hot Flush, subjects (%), Plasma Estradiol Level >50 pg/mL: (0.0%)
  Hot Flush, subjects (n), Plasma Estradiol Level 20-50 pg/mL: 0
  Hot Flush, subjects (n), Plasma Estradiol Level <20 pg/mL: 0
  Hot Flush, subjects (n), Plasma Estradiol Level >50 pg/mL: 0
[1]; [3]
  Hot Flush, subjects (%), Plasma Estradiol Level 20-50 pg/mL: (0.0%)
  Hot Flush, subjects (%), Plasma Estradiol Level <20 pg/mL: (12.5%)
  Hot Flush, subjects (%), Plasma Estradiol Level >50 pg/mL: (0.0%)
  Hot Flush, subjects (n), Plasma Estradiol Level 20-50 pg/mL: 0
  Hot Flush, subjects (n), Plasma Estradiol Level <20 pg/mL: 2
  Hot Flush, subjects (n), Plasma Estradiol Level >50 pg/mL: 0
[1]; [4]
  Hot Flush, subjects (%), Plasma Estradiol Level 20-50 pg/mL: (0.0%)
  Hot Flush, subjects (%), Plasma Estradiol Level <20 pg/mL: (12.5%)
  Hot Flush, subjects (%), Plasma Estradiol Level >50 pg/mL: (0.0%)
  Hot Flush, subjects (n), Plasma Estradiol Level 20-50 pg/mL: 0
  Hot Flush, subjects (n), Plasma Estradiol Level <20 pg/mL: 4
  Hot Flush, subjects (n), Plasma Estradiol Level >50 pg/mL: 0
[1]; [5]
  Hot Flush, subjects (%), Plasma Estradiol Level 20-50 pg/mL: (0.0%)
  Hot Flush, subjects (%), Plasma Estradiol Level <20 pg/mL: (0.0%)
  Hot Flush, subjects (%), Plasma Estradiol Level >50 pg/mL: (0.0%)
  Hot Flush, subjects (n), Plasma Estradiol Level 20-50 pg/mL: 0
  Hot Flush, subjects (n), Plasma Estradiol Level <20 pg/mL: 0
  Hot Flush, subjects (n), Plasma Estradiol Level >50 pg/mL: 0
[1]; [6]
  Hot Flush, subjects (%), Plasma Estradiol Level 20-50 pg/mL: (0.0%)
  Hot Flush, subjects (%), Plasma Estradiol Level <20 pg/mL: (25.0%)
  Hot Flush, subjects (%), Plasma Estradiol Level >50 pg/mL: (0.0%)
  Hot Flush, subjects (n), Plasma Estradiol Level 20-50 pg/mL: 0
  Hot Flush, subjects (n), Plasma Estradiol Level <20 pg/mL: 4
  Hot Flush, subjects (n), Plasma Estradiol Level >50 pg/mL: 0
[1]; [7]
  Hot Flush, subjects (%), Plasma Estradiol Level 20-50 pg/mL: (10.3%)
  Hot Flush, subjects (%), Plasma Estradiol Level <20 pg/mL: (6.9%)
  Hot Flush, subjects (%), Plasma Estradiol Level >50 pg/mL: (0.0%)
  Hot Flush, subjects (n), Plasma Estradiol Level 20-50 pg/mL: 3
  Hot Flush, subjects (n), Plasma Estradiol Level <20 pg/mL: 2
  Hot Flush, subjects (n), Plasma Estradiol Level >50 pg/mL: 0
[1]; [8]
  Hot Flush, subjects (%), Plasma Estradiol Level 20-50 pg/mL: (0.0%)
  Hot Flush, subjects (%), Plasma Estradiol Level <20 pg/mL: (0.0%)
  Hot Flush, subjects (%), Plasma Estradiol Level >50 pg/mL: (0.0%)
  Hot Flush, subjects (n), Plasma Estradiol Level 20-50 pg/mL: 0
  Hot Flush, subjects (n), Plasma Estradiol Level <20 pg/mL: 0
  Hot Flush, subjects (n), Plasma Estradiol Level >50 pg/mL: 0
[1]; [9]
  Hot Flush, subjects (%), Plasma Estradiol Level 20-50 pg/mL: (20.0%)
  Hot Flush, subjects (%), Plasma Estradiol Level <20 pg/mL: (13.3%)
  Hot Flush, subjects (%), Plasma Estradiol Level >50 pg/mL: (0.0%)
  Hot Flush, subjects (n), Plasma Estradiol Level 20-50 pg/mL: 3
  Hot Flush, subjects (n), Plasma Estradiol Level <20 pg/mL: 2
  Hot Flush, subjects (n), Plasma Estradiol Level >50 pg/mL: 0
[1]; [10]
  Hot Flush, subjects (%), Plasma Estradiol Level 20-50 pg/mL: (0.0%)
  Hot Flush, subjects (%), Plasma Estradiol Level <20 pg/mL: (3.4%)
  Hot Flush, subjects (%), Plasma Estradiol Level >50 pg/mL: (0.0%)
  Hot Flush, subjects (n), Plasma Estradiol Level 20-50 pg/mL: 0
  Hot Flush, subjects (n), Plasma Estradiol Level <20 pg/mL: 1
  Hot Flush, subjects (n), Plasma Estradiol Level >50 pg/mL: 0
[1]; [11]
  Hot Flush, subjects (%), Plasma Estradiol Level 20-50 pg/mL: (0.0%)
  Hot Flush, subjects (%), Plasma Estradiol Level <20 pg/mL: (0.0%)
  Hot Flush, subjects (%), Plasma Estradiol Level >50 pg/mL: (0.0%)
  Hot Flush, subjects (n), Plasma Estradiol Level 20-50 pg/mL: 0
  Hot Flush, subjects (n), Plasma Estradiol Level <20 pg/mL: 0
  Hot Flush, subjects (n), Plasma Estradiol Level >50 pg/mL: 0
[1]; [12]
  Hot Flush, subjects (%), Plasma Estradiol Level 20-50 pg/mL: (0.0%)
  Hot Flush, subjects (%), Plasma Estradiol Level <20 pg/mL: (6.7%)
  Hot Flush, subjects (%), Plasma Estradiol Level >50 pg/mL: (0.0%)
  Hot Flush, subjects (n), Plasma Estradiol Level 20-50 pg/mL: 0
  Hot Flush, subjects (n), Plasma Estradiol Level <20 pg/mL: 1
  Hot Flush, subjects (n), Plasma Estradiol Level >50 pg/mL: 0
[1]; [13]
  Hot Flush, subjects (%), Plasma Estradiol Level 20-50 pg/mL: (0.0%)
  Hot Flush, subjects (%), Plasma Estradiol Level <20 pg/mL: (0.0%)
  Hot Flush, subjects (%), Plasma Estradiol Level >50 pg/mL: (0.0%)
  Hot Flush, subjects (n), Plasma Estradiol Level 20-50 pg/mL: 0
  Hot Flush, subjects (n), Plasma Estradiol Level <20 pg/mL: 0
  Hot Flush, subjects (n), Plasma Estradiol Level >50 pg/mL: 0
[1]; [14]
  Hot Flush, subjects (%), Plasma Estradiol Level 20-50 pg/mL: (0.0%)
  Hot Flush, subjects (%), Plasma Estradiol Level <20 pg/mL: (0.0%)
  Hot Flush, subjects (%), Plasma Estradiol Level >50 pg/mL: (0.0%)
  Hot Flush, subjects (n), Plasma Estradiol Level 20-50 pg/mL: 0
  Hot Flush, subjects (n), Plasma Estradiol Level <20 pg/mL: 0
  Hot Flush, subjects (n), Plasma Estradiol Level >50 pg/mL: 0
[1]; [15]
  Hot Flush, subjects (%), Plasma Estradiol Level 20-50 pg/mL: (0.0%)
  Hot Flush, subjects (%), Plasma Estradiol Level <20 pg/mL: (0.0%)
  Hot Flush, subjects (%), Plasma Estradiol Level >50 pg/mL: (0.0%)
  Hot Flush, subjects (n), Plasma Estradiol Level 20-50 pg/mL: 0
  Hot Flush, subjects (n), Plasma Estradiol Level <20 pg/mL: 0
  Hot Flush, subjects (n), Plasma Estradiol Level >50 pg/mL: 0
[1]; both cohorts
  tolerability: well-tolerated
[1]; [16]
  adverse events: headache: 38/166
  adverse events: hot flushes: 19/166
β17-estradiol (E2); Concurrent-ABT cohort, whole study
  median E2 levels, window never left: 20 to 50 pg/mL
β17-estradiol (E2); by week 2
  median E2 level: 3.7 pg/mL
β17-estradiol (E2); by week 4
  median E2 level: 4.1 pg/mL
